From ChEMBL document CHEMBL4393704, “Synthesis and biological evaluation of dihydroquinazoline-2-amines as potent non-nucleoside reverse transcriptase inhibitors of wild-type and mutant HIV-1 strains” (Eur J Med Chem, 2019)

Experiments:
[1] = tested on: Human immunodeficiency virus 1; experiment: Antiviral activity against wild type HIV-1 3B infected in MT4 cells measured after 5 days by MTT assay; format: functional, organism-based; conditions: Human immunodeficiency virus 1, 3B, MT4, 120 h
[2] = Selectivity index, ratio of CC50 for human MT4 cells to EC50 for HIV-1 3B infected in MT4 cells; format: toxicity, cell-based; conditions: HIV-1 3B infected MT4 cells, read-out: Ratio CC50/EC50
[3] = tested on: Human immunodeficiency virus 1; experiment: Antiviral activity against HIV-1 3B harboring reverse transcriptase E138K mutant infected in MT4 cells measured after 5 days by MTT assay; format: functional, organism-based; conditions: Human immunodeficiency virus 1, 3B, MT4, 120 h
[4] = tested on: Human immunodeficiency virus 1; experiment: Antiviral activity against HIV-1 3B harboring reverse transcriptase RES056 mutant infected in MT4 cells measured after 5 days by MTT assay; format: functional, organism-based; conditions: Human immunodeficiency virus 1, 3B, MT4, 120 h
[5] = Cytotoxicity against human MT4 cells measured after 5 days by MTT assay; format: cell-based
[6] = target: Human immunodeficiency virus type 1 reverse transcriptase (Human immunodeficiency virus 1, UniProt Q72547); experiment: Inhibition of recombinant wild-type HIV1 3B reverse transcriptase assessed as reduction in biotin-dUTP incorporation using poly(rA)/oligo(dT)16 as template primer incubated for 1 hr followed by the addition of (DIG)-dUTP and biotin-labeled dNTPs by ELISA
[7] = tested on: Human immunodeficiency virus 1; experiment: Potency index, ratio of ETV EC50 to compound EC50 for antiviral activity against wild type HIV-1 3B infected in MT4 cells measured after 5 days by MTT assay; format: functional
[8] = tested on: Human immunodeficiency virus 1; experiment: Potency index, ratio of ETV EC50 to compound EC50 for antiviral activity against HIV-1 3B harboring reverse transcriptase E138K mutant infected in MT4 cells measured after 5 days by MTT assay; format: functional
[9] = tested on: Human immunodeficiency virus 1; experiment: Potency index, ratio of EFV EC50 to compound EC50 for antiviral activity against wild type HIV-1 3B infected in MT4 cells measured after 5 days by MTT assay; format: functional

| SMILES | EC50 [1] [nM] | selectivity ratio [2] | EC50 [3] [nM] | EC50 [4] [nM] | CC50 at 120 h [5] [nM] | IC50 [6] [nM] | Ratio EC50 [7] | Ratio EC50 [8] | Ratio EC50 [9] |
| --- | --- | --- | --- | --- | --- | --- | --- | --- | --- |
| N#Cc1cccc(NC2=Nc3ccc(Cl)cc3C(C#CC3CC3)(C(F)(F)F)N2)c1 (stereo not given) | 440 | 5 | 650 | > 2200 | 2200 |  |  |  |  |
| NC(=O)c1ccc(NC2=Nc3ccc(Cl)cc3C(C#CC3CC3)(C(F)(F)F)N2)cc1 (stereo not given) | 220 | 58 | 160 | > 2900 | 12000 |  |  |  |  |
| COc1ccccc1NC1=Nc2ccc(Cl)cc2C(C#CC2CC2)(C(F)(F)F)N1 (stereo not given) | 150 | 58 | 190 | > 8600 | 8600 |  |  |  |  |
| Cc1ccc(NC2=Nc3ccc(Cl)cc3C(C#CC3CC3)(C(F)(F)F)N2)cc1C (stereo not given) | 610 | 8 | 560 | > 5800 | 5900 |  |  |  |  |
| FC(F)(F)C1(C#CC2CC2)NC(Nc2cccc(Br)c2)=Nc2ccc(Cl)cc21 (stereo not given) | 150 | 14 | 420 | > 2100 | 2100 |  |  |  |  |
| FC(F)(F)C1(C#CC2CC2)NC(Nc2ccc(Br)cc2)=Nc2ccc(Cl)cc21 (stereo not given) | 450 | > 8 | > 3400 | > 3400 | > 3400 |  |  |  |  |
| Cc1cccc(NC2=Nc3ccc(Cl)cc3C(C#CC3CC3)(C(F)(F)F)N2)c1 (stereo not given) | 210 | 10 | 360 | > 2100 | 2100 |  |  |  |  |
| N#Cc1ccc(NC2=Nc3ccc(Cl)cc3C(C#CC3CC3)(C(F)(F)F)N2)cc1 (stereo not given) | 0.84 | 2300 | 3.5 | 66 | 1900 | 10 | 9 | 2 | 2 |
| COc1cccc(NC2=Nc3ccc(Cl)cc3C(C#CC3CC3)(C(F)(F)F)N2)c1 (stereo not given) | 63 | 44 | 290 | > 2600 | 2700 | 1.1 |  |  |  |
| Fc1ccc(NC2=Nc3ccc(Cl)cc3C(C#CC3CC3)(C(F)(F)F)N2)cc1Cl (stereo not given) | 190 | 10 | 460 | > 1800 | 1900 |  |  |  |  |
| Fc1ccccc1NC1=Nc2ccc(Cl)cc2C(C#CC2CC2)(C(F)(F)F)N1 (stereo not given) | 100 | 31 | 140 | > 3100 | 3100 |  |  |  |  |
| FC(F)(F)C1(C#CC2CC2)NC(Nc2cccc(Cl)c2)=Nc2ccc(Cl)cc21 (stereo not given) | 210 | 9 | 480 | > 2000 | 2000 |  |  |  |  |
| FC(F)(F)c1cccc(NC2=Nc3ccc(Cl)cc3C(C#CC3CC3)(C(F)(F)F)N2)c1 (stereo not given) | 51 | 64 | 350 | > 3200 | 3300 | 4.5 |  |  |  |
| O=C1Nc2ccc(Cl)cc2[C@@](C#CC2CC2)(C(F)(F)F)O1 [EFAVIRENZ] |  |  | 2 | 55 | > 2000 |  |  |  |  |
| O=[N+]([O-])c1cccc(NC2=Nc3ccc(Cl)cc3C(C#CC3CC3)(C(F)(F)F)N2)c1 (stereo not given) | 120 | 14 | 360 | > 1600 | 1600 |  |  |  |  |
| Fc1cccc(NC2=Nc3ccc(Cl)cc3C(C#CC3CC3)(C(F)(F)F)N2)c1 (stereo not given) | 160 | 12 | 340 | > 2000 | 2000 |  |  |  |  |
| Fc1ccc(NC2=Nc3ccc(Cl)cc3C(C#CC3CC3)(C(F)(F)F)N2)cc1 (stereo not given) | 250 | 9 | 460 | > 2300 | 2400 |  |  |  |  |
| Cc1ccccc1NC1=Nc2ccc(Cl)cc2C(C#CC2CC2)(C(F)(F)F)N1 (stereo not given) | 140 | 30 | 400 | > 4100 | 4100 |  |  |  |  |
| Cc1cc(C)cc(NC2=Nc3ccc(Cl)cc3C(C#CC3CC3)(C(F)(F)F)N2)c1 (stereo not given) | 360 | 6 | 600 | > 2100 | 2100 |  |  |  |  |
| FC(F)(F)C1(C#CC2CC2)NC(Nc2ccccc2Br)=Nc2ccc(Cl)cc21 (stereo not given) | 88 | 133 | 160 | 1800 | 11000 | 3.4 |  |  |  |
| Cc1cc(C#N)cc(C)c1Oc1nc(Nc2ccc(C#N)cc2)nc(N)c1Br [ETRAVIRINE] |  | > 923 | 6.3 | 15 | > 2000 |  |  |  |  |
| Cc1ccc(NC2=Nc3ccc(Cl)cc3C(C#CC3CC3)(C(F)(F)F)N2)cc1 (stereo not given) | 250 | 20 | 400 | > 4900 | 5000 |  |  |  |  |
| COc1ccc(NC2=Nc3ccc(Cl)cc3C(C#CC3CC3)(C(F)(F)F)N2)cc1 (stereo not given) | 260 | 32 | 410 | > 8400 | 8400 |  |  |  |  |
| FC(F)(F)C1(C#CC2CC2)NC(Nc2ccccc2)=Nc2ccc(Cl)cc21 (stereo not given) | 110 | 21 | 380 | > 2400 | 2400 |  |  |  |  |
| FC(F)(F)C1(C#CC2CC2)NC(Nc2ccc(Cl)c(Cl)c2)=Nc2ccc(Cl)cc21 (stereo not given) | 30 | 70 | 170 | > 2100 | 2100 | 3.7 |  |  |  |
| Fc1ccc(NC2=Nc3ccc(Cl)cc3C(C#CC3CC3)(C(F)(F)F)N2)cc1F (stereo not given) | 360 | 5 | > 1800 | > 1800 | 1800 |  |  |  |  |
